Experimental data from ChEMBL document CHEMBL3832079, “DailyMed|setid=c8806b45-493a-4373-bce7-736e97f9f876 | DIVALPROEX SODIUM - divalproex sodium tablet, delayed release|REMEDYREPACK INC”.
Several values for one entry are separate records, joined by “and”; a condition that tells them apart may be missing. Equal entries are not always repeated.

Experiments:
Homo sapiens [1] = experiment: Evaluation of pharmacokinetic parameters for Valproic acid following single oral administration of Divalproex Sodium tablets or capsules.; format: ADME, organism-based; conditions: in vivo, dosed compound id 430, dosed compound name DIVALPROEX SODIUM, regimen Single dose, tissue Plasma
Homo sapiens [2] = experiment: Evaluation of pharmacokinetic parameters for Valproic acid following oral administration of Divalproex Sodium.; format: ADME, organism-based; conditions: in vivo, dosed compound id 431, dosed compound name VALPROATE SALT, tissue Plasma

- Tmax (Homo sapiens [1]; dietary status Fasting): 3.3 h and 4 h
- Tmax (Homo sapiens [1]; dietary status Fed): 4.8 h and 8 h
- t1/2 (Homo sapiens [1]; dose 250 to 1000 mg): 9 to 16 h
- CL (Homo sapiens [2]; gender female): 4.7 L/hr/1.73 m2
- t1/2 (Homo sapiens [2]; gender male and female): 12 h and 18 h
- CL (Homo sapiens [2]; gender male): 4.8 L/hr/1.73 m2
- t1/2 (Homo sapiens [2]): 10 to 67 h and 7 to 13 h
Compound: CCCC(CCC)C(=O)O [VALPROIC ACID]
